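In this assay, cells in 96-well plates receive the compound at five concentrations for 48 hours. Endpoints are linearly interpolated between the surrounding concentrations. GI50 = concentration required for 50% inhibition of growth.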 Calls of active or inactive are those of the source. Rule as the data show it: active = GI50 up to about 1.1 µM and inactive = higher. Starred links: 1 amine or outer side, 2 acyl side, 3 side chain; linkers in the order of their positions; H or OH if unused. Non-standard residues stand in square brackets, D forms with d. Residues, ends and D or L forms follow the SMILES beside them. X35 = C=CCC(O[*:1])C(=O)[*:2]; NMeV = CN[CH](C(=O)O)C(C)C; NMeA = CN[CH](C)C(=O)O; βAla = NCCC(=O)O
What was measured:
Test in all cases: inhibition of tumour cell growth, NCI panel, 48 h
A549 = tested on: A549
OVCAR-3 = tested on: OVCAR-3
HCT-15 = tested on: HCT-15
SK-MEL-2 = tested on: SK-MEL-2
DU-145 = tested on: DU-145
HL-60 = tested on: HL-60
RXF 393 = tested on: RXF 393
SF-295 = tested on: SF-295
HOP-62 = tested on: HOP-62
MOLT-4 = tested on: MOLT-4
HCT-116 = tested on: HCT-116
KM12 = tested on: KM12
SF-539 = tested on: SF-539
K562 = tested on: K562
ACHN = tested on: ACHN
BT-549 = tested on: BT-549
SN12C = tested on: SN12C
NCI-H23 = tested on: NCI-H23
NCI-H522 = tested on: NCI-H522
LOX IMVI = tested on: LOX IMVI

SMILES	GI50 (A549)	GI50 (OVCAR-3)	GI50 (HCT-15) [µM]	GI50 (SK-MEL-2)	GI50 (DU-145)	GI50 (HL-60)	GI50 (RXF 393)	GI50 (SF-295)	GI50 (HOP-62)	GI50 (MOLT-4)	GI50 (HCT-116)	GI50 (KM12)	GI50 (SF-539)	GI50 (K562)	GI50 (ACHN)	GI50 (BT-549)	GI50 (SN12C)	GI50 (NCI-H23)	GI50 (NCI-H522)	GI50 (LOX IMVI)
C1=N\CCNCCNCC/N=C\c2ccc(cc2)OCc2cccc(n2)COc2ccc/1cc2	> 100 µM (inactive)	> 100 µM (inactive)	> 100	> 100 µM (inactive)	> 100 µM (inactive)	67.9 µM (inactive)	> 100 µM (inactive)	> 100 µM (inactive)	> 100 µM (inactive)	29 µM (inactive)	> 100 µM (inactive)	33.2 µM (inactive)	> 100 µM (inactive)	34.1 µM (inactive)	> 100 µM (inactive)	> 100 µM (inactive)	> 100 µM (inactive)	86.3 µM (inactive)	–	–
CCOC(=O)C(C(=O)OCC)=C1SC(=N\c2ccccc2)/C(=N/c2ccccc2)N1c1ccccc1	> 100 µM (inactive)	35.8 µM (inactive)	> 100	> 100 µM (inactive)	> 100 µM (inactive)	> 100 µM (inactive)	28.2 µM (inactive)	27 µM (inactive)	34.2 µM (inactive)	13.3 µM (inactive)	> 100 µM (inactive)	> 100 µM (inactive)	> 100 µM (inactive)	4.48 µM (inactive)	64 µM (inactive)	> 100 µM (inactive)	> 100 µM (inactive)	> 100 µM (inactive)	76.6 µM (inactive)	–
Cc1ccc2c(=O)c(-c3nnc(NC4CCCCC4)s3)c[nH]c2n1	> 100 µM (inactive)	> 100 µM (inactive)	> 100	> 100 µM (inactive)	> 100 µM (inactive)	> 100 µM (inactive)	> 100 µM (inactive)	81.7 µM (inactive)	> 100 µM (inactive)	61 µM (inactive)	> 100 µM (inactive)	> 100 µM (inactive)	–	> 100 µM (inactive)	> 100 µM (inactive)	> 100 µM (inactive)	> 100 µM (inactive)	> 100 µM (inactive)	> 100 µM (inactive)	> 100 µM (inactive)
O=c1[nH]nc(Cc2ccc([N+](=O)[O-])cc2)n1CCO	> 100 µM (inactive)	> 100 µM (inactive)	> 100	> 100 µM (inactive)	> 100 µM (inactive)	> 100 µM (inactive)	–	> 100 µM (inactive)	–	–	> 100 µM (inactive)	> 100 µM (inactive)	> 100 µM (inactive)	> 100 µM (inactive)	> 100 µM (inactive)	> 100 µM (inactive)	> 100 µM (inactive)	> 100 µM (inactive)	> 100 µM (inactive)	> 100 µM (inactive)
CC1CC(N)=Nc2ccccc2N1Cc1ccccc1 (stereo unspecified)	17.4 µM (inactive)	12.4 µM (inactive)	15.8	14.3 µM (inactive)	16.6 µM (inactive)	3.96 µM (inactive)	12 µM (inactive)	14.5 µM (inactive)	13 µM (inactive)	3.49 µM (inactive)	29.3 µM (inactive)	15 µM (inactive)	–	4.98 µM (inactive)	15.2 µM (inactive)	13.3 µM (inactive)	16.6 µM (inactive)	16.3 µM (inactive)	12.7 µM (inactive)	–
Cn1cc2c(=O)n3ncn(-c4ccc(Br)cc4)c3nc2n1	> 100 µM (inactive)	> 100 µM (inactive)	> 100	> 100 µM (inactive)	> 100 µM (inactive)	> 100 µM (inactive)	> 100 µM (inactive)	> 100 µM (inactive)	–	> 100 µM (inactive)	> 100 µM (inactive)	> 100 µM (inactive)	> 100 µM (inactive)	> 100 µM (inactive)	> 100 µM (inactive)	> 100 µM (inactive)	> 100 µM (inactive)	> 100 µM (inactive)	> 100 µM (inactive)	–
COc1cccc2c1C(=O)C=CC2=O	20 µM (inactive)	1.85 µM (inactive)	7.85	10.1 µM (inactive)	19.2 µM (inactive)	0.32 µM (active)	6.76 µM (inactive)	15.6 µM (inactive)	19.9 µM (inactive)	0.526 µM (active)	3.44 µM (inactive)	9.82 µM (inactive)	16.1 µM (inactive)	1.32 µM (inactive)	4.39 µM (inactive)	15.5 µM (inactive)	14 µM (inactive)	14.8 µM (inactive)	2.39 µM (inactive)	–
COc1cc(C2C(Cl)C(=O)N2c2ccc(Br)cc2)cc(I)c1O (stereo unspecified)	42.4 µM (inactive)	45.3 µM (inactive)	23.8	65.8 µM (inactive)	> 100 µM (inactive)	34 µM (inactive)	–	35.4 µM (inactive)	37.4 µM (inactive)	27.5 µM (inactive)	40.3 µM (inactive)	37.3 µM (inactive)	> 100 µM (inactive)	7.21 µM (inactive)	33.5 µM (inactive)	45.1 µM (inactive)	68.5 µM (inactive)	52.8 µM (inactive)	18.7 µM (inactive)	6.04 µM (inactive)
COc1cc2c(cc1O)-c1c(OC)c(O)cc3c1C(C2)N(C)CC3 (stereo unspecified)	> 100 µM (inactive)	> 100 µM (inactive)	> 100	> 100 µM (inactive)	> 100 µM (inactive)	> 100 µM (inactive)	> 100 µM (inactive)	> 100 µM (inactive)	–	> 100 µM (inactive)	> 100 µM (inactive)	> 100 µM (inactive)	> 100 µM (inactive)	–	> 100 µM (inactive)	> 100 µM (inactive)	> 100 µM (inactive)	> 100 µM (inactive)	> 100 µM (inactive)	> 100 µM (inactive)
COC(=O)C1(C(=O)OC)CC2=C(S(=O)(=O)c3ccccc3)C[C@H](S(=O)(=O)c3ccccc3)[C@H]2C1	> 100 µM (inactive)	29 µM (inactive)	35.3	27.2 µM (inactive)	> 100 µM (inactive)	–	13.8 µM (inactive)	> 100 µM (inactive)	78.9 µM (inactive)	46.7 µM (inactive)	70.5 µM (inactive)	91.8 µM (inactive)	–	23.7 µM (inactive)	> 100 µM (inactive)	> 100 µM (inactive)	> 100 µM (inactive)	> 100 µM (inactive)	33 µM (inactive)	> 100 µM (inactive)
COc1c(-c2ccccc2)oc2c(CP(=O)(OC)OC)cccc2c1=O	> 100 µM (inactive)	> 100 µM (inactive)	–	> 100 µM (inactive)	> 100 µM (inactive)	–	> 100 µM (inactive)	> 100 µM (inactive)	> 100 µM (inactive)	> 100 µM (inactive)	> 100 µM (inactive)	–	> 100 µM (inactive)	> 100 µM (inactive)	–	41.1 µM (inactive)	> 100 µM (inactive)	68.2 µM (inactive)	> 100 µM (inactive)	–
O=C=NCCCCCCN1C(=O)N2C(c3ccccc3)N(CCCCCCN=C=O)C(=O)N2C1c1ccccc1 (stereo unspecified)	> 100 µM (inactive)	> 100 µM (inactive)	> 100	> 100 µM (inactive)	> 100 µM (inactive)	> 100 µM (inactive)	> 100 µM (inactive)	> 100 µM (inactive)	> 100 µM (inactive)	62.1 µM (inactive)	> 100 µM (inactive)	> 100 µM (inactive)	> 100 µM (inactive)	> 100 µM (inactive)	> 100 µM (inactive)	> 100 µM (inactive)	> 100 µM (inactive)	> 100 µM (inactive)	–	> 100 µM (inactive)
CCc1n[nH]c(=O)n1N1C(=O)CCC1=O	> 100 µM (inactive)	> 100 µM (inactive)	> 100	> 100 µM (inactive)	> 100 µM (inactive)	–	> 100 µM (inactive)	> 100 µM (inactive)	> 100 µM (inactive)	> 100 µM (inactive)	> 100 µM (inactive)	> 100 µM (inactive)	–	> 100 µM (inactive)	> 100 µM (inactive)	> 100 µM (inactive)	> 100 µM (inactive)	–	> 100 µM (inactive)	> 100 µM (inactive)
N#CC(C/C=C/c1ccccc1)NNC(=O)c1c(Cl)c(Cl)c(Cl)c(Cl)c1-c1nc2cc(C(=O)c3ccccc3)ccc2[nH]1 (stereo unspecified)	18.1 µM (inactive)	7.53 µM (inactive)	11.6	17.5 µM (inactive)	18.5 µM (inactive)	7.57 µM (inactive)	9.53 µM (inactive)	3.92 µM (inactive)	6.14 µM (inactive)	13.4 µM (inactive)	20 µM (inactive)	23.4 µM (inactive)	9.86 µM (inactive)	6.34 µM (inactive)	25.9 µM (inactive)	20.7 µM (inactive)	14.8 µM (inactive)	17.9 µM (inactive)	–	13.5 µM (inactive)
C=CCC1OC(=O)CCNC(=O)C(C)N(C)C(=O)C(C(C)C)N(C)C(=O)C(C(C)CC)NC(=O)C2CCCN2C1=O (stereo unspecified) (cyclo([X35]PI[NMeV][NMeA][βAla]); configuration not given here)	9.84 µM (inactive)	2.16 µM (inactive)	23.2	9.08 µM (inactive)	44.9 µM (inactive)	2.56 µM (inactive)	–	4.08 µM (inactive)	10.2 µM (inactive)	2.11 µM (inactive)	3.68 µM (inactive)	10.8 µM (inactive)	45.1 µM (inactive)	–	18.4 µM (inactive)	32 µM (inactive)	> 100 µM (inactive)	33.2 µM (inactive)	16 µM (inactive)	1.85 µM (inactive)

Reference: ChEMBL document CHEMBL1201862, “PubChem BioAssay data set” (2004)
